Columns and labels:
[1] = tested on: A. baumannii; test: Growth in sugars, microfluidic device (phenol red colour change); for Growth, Device: key: + indicates growth; − indicates no growth; format: cell-based; settings: for Growth, Device: A. baumannii, sugar 1% (w/v), LB with 0.05% phenol red pH 8.2
Procedure: (§1) Self-loading microfluidic devices were prepared as described above. Reaction wells were filled with different sugar solutions including (1) cellbiose, (2) glycerol, (3) lactose, (4) mannitol, (5) mannose, (6) raffinose, (7) sucrose, (8) trehalose, (9) xylose, and (10) control (no sugar) (FIG. 28). The final concentration of the sugar in each chamber was 1% (w/v). After loading the sugar solutions, the liquid was evaporated as described above. The devices were then assembled and degassed by vacuum.
(§2) Cultures of A. baumannii-1, A. baumannii-2, K. pneumoniea-1, K. pneumoniea-2, S. aureus-1, S. aureus-2, E. coli (UT189), E. faecalis-1, E. faecalis-2, V. cholerae-1, and (11) V. cholerae-2 were grown for 15 hours in LB (pH 7.0). The cultures were then diluted at a ratio of 1:50 in LB containing 0.05% (w/v) phenol red (pH8.2) and added to individual devices using degas-driven flow. Growth of bacteria results in a pH change of the LB that causes a color change from red (illustrated in FIGS. 29 and 30 as filled chambers) to yellow (illustrated in FIGS. 29 and 30 as hatched chambers).

[2] = tested on: E. coli (UT189); test: as above; format: cell-based; settings: for Growth, Device: E. coli (UT189), sugar 1% (w/v), LB with 0.05% phenol red pH 8.2; for growth in device chamber: E. coli (UT189)-1
Procedure: as §1, §2

[3] = tested on: E. faecalis; test: as above; format: cell-based; settings: E. faecalis-1 and E. faecalis-2; by 18 hours of incubation
Procedure: as §1, §2

[4] = tested on: K. pneumoniae; test: as above; format: cell-based; settings: for Growth, Device: K. pneumoniae, sugar 1% (w/v), LB with 0.05% phenol red pH 8.2; for growth in device chamber: K. pneumoniea-1 and K. pneumoniea-2, by 4 hours of incubation
Procedure: as §1, §2

[5] = tested on: A. baumannii; test: Growth in sugars, culture tubes; format: cell-based; settings: for Growth, Tube: A. baumannii, culture tubes
Text: (§3) Results observed in microfluidic devices are illustrated in FIGS. 29A-F and 30A-E. The predicted growth as compared to devices and culture tubes are summarized in Table 2.

[6] = tested on: E. coli (UT189); test: Growth in sugars, culture tubes; format: cell-based
Text: as §3

[7] = tested on: E. faecalis; test: Growth in sugars, culture tubes; format: cell-based
Text: as §3

[8] = tested on: K. pneumoniae; test: Growth in sugars, culture tubes; format: cell-based
Text: as §3

[9] = tested on: E. faecalis; settings: cited from earlier work; for Growth, Predicted: key: + indicates growth; − indicates no growth
[10] = tested on: S. aureus; settings: cited from earlier work; note: key: + indicates growth; − indicates no growth
[11] = tested on: E. coli (UT189); settings: cited from earlier work; for Growth, Device: key: + indicates growth; − indicates no growth; for Growth, Predicted: key: + indicates growth; − indicates no growth
[12] = tested on: S. aureus; test: Growth in sugars, microfluidic device (phenol red colour change); for Growth, Device: key: + indicates growth; − indicates no growth; format: cell-based; settings: for Growth, Device: S. aureus, sugar 1% (w/v), LB with 0.05% phenol red pH 8.2
Procedure: as §1, §2

[13] = tested on: S. aureus; test: Growth in sugars, culture tubes; format: cell-based; settings: for Growth, Tube: culture tubes; for Growth, Tube: key: + indicates growth; − indicates no growth
Text: as §3

[14] = S. aureus-1, by 8 hours of incubation
Throughout, for Growth, Device: key: + indicates growth; − indicates no growth.

Compound | Growth, Device [1] | Growth, Device [2] | growth in device chamber [3] | Growth, Device [4] | Growth, Tube [5] | Growth, Tube [6] | Growth, Tube [7] | Growth, Tube [8] | Growth, Predicted [9] | Growth, Predicted [10] | Growth, Predicted [11] | growth in device chamber [4] | growth in device chamber [12, 14] | Growth, Device [12] | growth in culture tubes [13] | Growth, Tube [13] | growth in device chamber [2] | growth in device chamber ([12]; S. aureus-2, by 18 hours of incubation) | growth in device chamber ([1]; A. baumannii-1 and A. baumannii-2, by 8 hours of incubation) | growth in culture tubes ([5]; A. baumannii-1 and A. baumannii-2)
OC[C@H]1O[C@@H](O[C@H]2[C@H](O)[C@@H](O)[C@@H](O)O[C@@H]2CO)[C@H](O)[C@@H](O)[C@@H]1O [Cellbiose, cellbiose] | − | − | grew | − | − | − | + | + | + | − | − |  |  |  |  |  |  |  |  | 
OCC(O)CO [Glycerol, glycerol] | − | − | grew | + | − | − | + | + | + | + | + | grew | grew | + | no growth was observed | − |  |  |  | 
OC[C@H]1O[C@@H](O[C@H]2[C@H](O)[C@@H](O)C(O)O[C@@H]2CO)[C@H](O)[C@@H](O)[C@H]1O (stereo partly shown) [Lactose, lactose] |  | + | grew | − |  | + | + | − | + | + | + |  | growth was not observed | − |  | + | grew | growth was not observed |  | 
OC[C@@H](O)[C@@H](O)[C@H](O)[C@H](O)CO [Mannitol, mannitol] |  | + | grew | + |  | + | + | + | + | + | + | grew | grew | + |  | + | grew |  |  | 
OC[C@H]1O[C@H](OC[C@H]2O[C@H](O[C@]3(CO)O[C@H](CO)[C@@H](O)[C@@H]3O)[C@H](O)[C@@H](O)[C@@H]2O)[C@H](O)[C@@H](O)[C@H]1O [Raffinose, raffinose] | − | − |  | + | − | − | − | + | − | − | − | grew |  |  |  |  |  |  |  | 
O=C[C@H](O)[C@@H](O)[C@H](O)CO [Xylose, xylose] | + | − |  | − | − | + | − | + | − | − | + |  |  |  |  |  | grew |  | grew | did not grow
